Experimental data as given in US8686044B2, “Amide derivative, pest control agent containing the amide derivative, and use of the amide derivative” (Mitsui Chemicals Agro, Inc., priority 2008, dated 2014).

Legend:
Spodoptera litura = assay: Pesticidal test against Spodoptera litura (cabbage leaf dip); type: in vivo; conditions: foliar, 144 h, 2-stage larvae, examined after 6 days, 25° C., read-out: pesticidal rate; for pest or weed control at 1 ppm: concentration 1 ppm; for pest or weed control at 10 ppm: concentration 10 ppm
Protocol: (§1) Pesticidal Test against Spodoptera litura A piece of a cabbage leaf was immersed for 30 seconds in a chemical solution in which a test compound had been prepared at a predetermined concentration, and air-dried, and then put into a 7 cm polyethylene cup having a filter paper laid on the bottom thereof, and 2-stage larvae of Spodoptera litura were released. They were left to stand in a thermostatic chamber at 25° C., and the numbers of the living pests and the dead pests were examined after 6 days. The test was carried out with five larvae per group in two replicates. Further, the following compound (A) disclosed in the pamphlet of International Publication WO 2005/073165 was used as a comparative compound.

Plutella xylostella = assay: Pesticidal test against Plutella xylostella (cabbage leaf dip); type: in vivo; conditions: foliar, 144 h, 2-stage larvae, examined after 6 days, 25° C., read-out: pesticidal rate; for pest or weed control at 10 ppm: concentration 10 ppm; for pest or weed control at 1 ppm: concentration 1 ppm
Protocol: as §1, with “Plutella xylostella” for “Spodoptera litura”, “above” for “following”, “(A)” for “(A) disclosed in the pamphlet of International Publication WO 2005/073165”

| SMILES | pest or weed control at 1 ppm (Spodoptera litura) [%] | pest or weed control at 10 ppm (Plutella xylostella) [%] | pest or weed control at 10 ppm (Spodoptera litura) [%] | pest or weed control at 1 ppm (Plutella xylostella) [%] |
| --- | --- | --- | --- | --- |
| N#Cc1ccc(C(=O)Nc2c(Cl)cc(C(F)(C(F)(F)F)C(F)(F)F)cc2C(F)(F)F)cc1NC(=O)c1ccccc1 [1-470] | ≥ 70 | ≥ 70 | – | – |
| N#Cc1ccc(C(=O)Nc2c(Cl)cc(C(F)(C(F)(F)F)C(F)(F)F)cc2C(F)(F)F)cc1NC(=O)c1cccnc1Cl [1-506] | – | ≥ 70 | ≥ 70 | – |
| N#Cc1ccc(C(=O)Nc2c(Cl)cc(C(F)(C(F)(F)F)C(F)(F)F)cc2C(F)(F)F)cc1NC(=O)c1ccc(Cl)nc1 [1-513] | ≥ 70 | – | – | ≥ 70 |
| CN(C(=O)c1ccc(Cl)nc1)c1cc(C(=O)Nc2c(Cl)cc(C(F)(C(F)(F)F)C(F)(F)F)cc2C(F)(F)F)ccc1C#N [2-513] | – | – | ≥ 70 | ≥ 70 |
| CN(C(=O)c1ccc(C#N)nc1)c1cc(C(=O)Nc2c(Cl)cc(C(F)(C(F)(F)F)C(F)(F)F)cc2C(F)(F)F)ccc1C#N [2-518] | – | ≥ 70 | ≥ 70 | – |
| O=C(Nc1cccc(C(=O)Nc2c(Br)cc(C(F)(C(F)(F)F)C(F)(F)C(F)(F)F)cc2Br)c1)c1ccccc1 (stereo not shown) [6-38] | ≥ 70 | – | – | ≥ 70 |
| N#Cc1ccc(C(=O)Nc2cccc(C(=O)Nc3c(Br)cc(C(F)(C(F)(F)F)C(F)(F)C(F)(F)F)cc3Br)c2)cc1 (stereo not shown) [6-46] | ≥ 70 | – | – | ≥ 70 |
| O=C(Nc1cccc(C(=O)Nc2c(Br)cc(C(F)(C(F)(F)F)C(F)(F)C(F)(F)F)cc2Br)c1)c1ccc(Cl)nc1 (stereo not shown) [6-60] | ≥ 70 | ≥ 70 | – | – |
| N#Cc1cccc(C(=O)Nc2cccc(C(=O)Nc3c(I)cc(C(F)(C(F)(F)F)C(F)(F)C(F)(F)F)cc3I)c2)c1 (stereo not shown) [6-78] | ≥ 70 | – | – | ≥ 70 |
| O=C(Nc1cccc(C(=O)Nc2c(I)cc(C(F)(C(F)(F)F)C(F)(F)C(F)(F)F)cc2I)c1)c1ccc(Cl)nc1 (stereo not shown) [6-93] | ≥ 70 | ≥ 70 | – | – |
| O=C(Nc1cccc(C(=O)Nc2c(Cl)cc(C(F)(C(F)(F)F)C(F)(F)F)cc2C(F)(F)F)c1)c1ccccc1 [6-111] | ≥ 70 | – | – | ≥ 70 |
| N#Cc1cccc(C(=O)Nc2cccc(C(=O)Nc3c(Br)cc(C(F)(C(F)(F)F)C(F)(F)F)cc3C(F)(F)F)c2)c1 [6-288] | ≥ 70 | – | – | ≥ 70 |
| N#Cc1ccc(C(=O)Nc2cccc(C(=O)Nc3c(Br)cc(C(F)(C(F)(F)F)C(F)(F)F)cc3C(F)(F)F)c2)cc1 [6-289] | ≥ 70 | – | – | ≥ 70 |
| N#Cc1ccc(C(=O)Nc2cccc(C(=O)Nc3c(Br)cc(C(F)(C(F)(F)F)C(F)(F)F)cc3C(F)(F)F)c2)c(F)c1 [6-300] | ≥ 70 | – | – | ≥ 70 |
| O=C(Nc1cccc(C(=O)Nc2c(I)cc(C(F)(C(F)(F)F)C(F)(F)F)cc2C(F)(F)F)c1)c1ccccc1 [6-424] | ≥ 70 | – | – | ≥ 70 |
| O=C(Nc1c(I)cc(C(F)(C(F)(F)F)C(F)(F)F)cc1C(F)(F)F)c1cccc(NC(=O)c2ccc(Cl)cc2Cl)c1 [6-448] | ≥ 70 | ≥ 70 | – | – |
| O=C(Nc1c(I)cc(C(F)(C(F)(F)F)C(F)(F)F)cc1C(F)(F)F)c1cccc(NC(=O)c2ccc([N+](=O)[O-])cc2Cl)c1 [6-454] | – | ≥ 70 | ≥ 70 | – |
| O=C(Nc1cccc(C(=O)Nc2c(I)cc(C(F)(C(F)(F)F)C(F)(F)F)cc2C(F)(F)F)c1)c1ccc(Cl)nc1 [6-467] | ≥ 70 | – | – | ≥ 70 |
| O=C(Nc1cccc(C(=O)Nc2c(I)cc(C(F)(C(F)(F)F)C(F)(F)C(F)(F)F)cc2C(F)(F)F)c1)c1ccccc1 (stereo not shown) [6-502] | ≥ 70 | – | – | ≥ 70 |
| O=C(Nc1cccc(C(=O)Nc2c(I)cc(C(F)(C(F)(F)F)C(F)(F)C(F)(F)F)cc2C(F)(F)F)c1)c1ccc(Cl)nc1 (stereo not shown) [6-545] | ≥ 70 | – | – | ≥ 70 |
| O=C(Nc1cccc(C(=O)Nc2c(C(F)(F)F)cc(C(F)(C(F)(F)F)C(F)(F)F)cc2C(F)(F)F)c1)c1ccccc1 [6-804] | ≥ 70 | – | – | ≥ 70 |
| N#Cc1cccc(C(=O)Nc2cccc(C(=O)Nc3c(C(F)(F)F)cc(C(F)(C(F)(F)F)C(F)(F)F)cc3C(F)(F)F)c2)c1 [6-824] | ≥ 70 | – | – | ≥ 70 |
| N#Cc1ccc(C(=O)Nc2cccc(C(=O)Nc3c(C(F)(F)F)cc(C(F)(C(F)(F)F)C(F)(F)F)cc3C(F)(F)F)c2)cc1 [6-825] | ≥ 70 | – | – | ≥ 70 |
